Experiment [1] concerns the target T1, Prostaglandin G/H synthase 1 (Rattus norvegicus, UniProt Q63921).
T1 sequence (Q63921 whole entry): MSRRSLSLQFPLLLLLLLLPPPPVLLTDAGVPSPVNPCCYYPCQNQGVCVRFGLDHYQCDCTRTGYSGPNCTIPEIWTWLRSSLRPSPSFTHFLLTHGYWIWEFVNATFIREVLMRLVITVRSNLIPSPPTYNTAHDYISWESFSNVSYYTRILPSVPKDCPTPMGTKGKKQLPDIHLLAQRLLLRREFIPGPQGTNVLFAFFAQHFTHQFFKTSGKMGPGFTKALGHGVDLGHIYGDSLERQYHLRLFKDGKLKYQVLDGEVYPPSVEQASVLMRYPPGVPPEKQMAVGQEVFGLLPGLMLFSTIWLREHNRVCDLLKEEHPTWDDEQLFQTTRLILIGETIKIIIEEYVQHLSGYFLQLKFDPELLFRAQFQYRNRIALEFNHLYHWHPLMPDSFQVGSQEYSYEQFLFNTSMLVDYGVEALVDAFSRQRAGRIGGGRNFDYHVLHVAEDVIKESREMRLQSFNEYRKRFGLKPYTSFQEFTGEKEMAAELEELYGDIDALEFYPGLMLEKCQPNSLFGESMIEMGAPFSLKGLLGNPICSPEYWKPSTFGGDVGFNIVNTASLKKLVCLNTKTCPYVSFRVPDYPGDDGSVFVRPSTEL
The experiment is classed as functional.

Experiment [2] addresses Kappa-type opioid receptor (Homo sapiens, UniProt P41145).
Experiment [3] has as its target 5-hydroxytryptamine receptor 2A (Homo sapiens, UniProt P28223). The experiment is classed as functional, cell-based.
For experiment [4], the target named is T2, Alpha-2B adrenergic receptor (Homo sapiens, UniProt P18089).
T2 sequence (P18089 whole entry): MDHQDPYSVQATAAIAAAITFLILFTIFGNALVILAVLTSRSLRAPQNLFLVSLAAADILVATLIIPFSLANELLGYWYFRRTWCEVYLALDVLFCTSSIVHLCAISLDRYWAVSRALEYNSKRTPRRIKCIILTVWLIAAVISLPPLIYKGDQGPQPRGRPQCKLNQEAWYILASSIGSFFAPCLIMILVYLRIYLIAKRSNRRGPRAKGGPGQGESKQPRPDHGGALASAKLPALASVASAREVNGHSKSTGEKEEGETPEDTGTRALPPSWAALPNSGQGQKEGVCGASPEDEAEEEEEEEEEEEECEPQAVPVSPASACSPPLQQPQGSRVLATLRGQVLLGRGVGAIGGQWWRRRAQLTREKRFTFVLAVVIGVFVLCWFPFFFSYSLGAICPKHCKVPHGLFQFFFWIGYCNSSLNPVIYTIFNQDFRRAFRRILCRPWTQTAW

Experiment [5] addresses T3, 5-hydroxytryptamine receptor 1A (Homo sapiens, UniProt P08908).
T3 sequence (P08908 whole entry): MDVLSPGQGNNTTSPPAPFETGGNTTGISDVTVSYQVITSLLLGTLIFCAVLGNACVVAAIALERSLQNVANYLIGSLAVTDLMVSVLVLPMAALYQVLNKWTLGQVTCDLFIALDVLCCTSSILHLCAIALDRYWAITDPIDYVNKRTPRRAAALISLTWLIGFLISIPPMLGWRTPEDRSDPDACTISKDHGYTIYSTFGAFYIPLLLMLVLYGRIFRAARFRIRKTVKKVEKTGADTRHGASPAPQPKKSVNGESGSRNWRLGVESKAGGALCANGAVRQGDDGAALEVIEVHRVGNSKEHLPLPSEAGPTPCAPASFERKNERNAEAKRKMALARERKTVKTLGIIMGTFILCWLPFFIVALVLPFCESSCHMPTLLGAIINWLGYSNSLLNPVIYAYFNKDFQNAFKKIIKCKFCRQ
The experiment is classed as functional, cell-based.

Experiment [6] concerns the target T4, 5-hydroxytryptamine receptor 3A (Homo sapiens, UniProt P46098).
T4 sequence (P46098 whole entry): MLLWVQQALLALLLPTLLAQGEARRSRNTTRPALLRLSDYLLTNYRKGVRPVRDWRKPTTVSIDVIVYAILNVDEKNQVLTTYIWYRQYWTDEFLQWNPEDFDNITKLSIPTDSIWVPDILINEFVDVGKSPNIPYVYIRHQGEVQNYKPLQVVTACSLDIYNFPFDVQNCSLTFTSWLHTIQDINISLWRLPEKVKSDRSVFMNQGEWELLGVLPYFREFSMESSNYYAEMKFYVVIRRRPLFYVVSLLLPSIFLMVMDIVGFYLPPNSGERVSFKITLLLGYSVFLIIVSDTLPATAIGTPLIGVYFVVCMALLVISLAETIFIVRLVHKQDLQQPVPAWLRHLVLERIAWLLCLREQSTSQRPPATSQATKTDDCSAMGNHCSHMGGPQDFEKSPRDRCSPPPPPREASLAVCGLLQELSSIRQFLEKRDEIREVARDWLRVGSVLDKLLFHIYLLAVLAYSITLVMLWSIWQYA
It is filed as functional.

Experiment [7] addresses T5, Alpha-1A adrenergic receptor (Homo sapiens, UniProt P35348).
T5 sequence (P35348 whole entry): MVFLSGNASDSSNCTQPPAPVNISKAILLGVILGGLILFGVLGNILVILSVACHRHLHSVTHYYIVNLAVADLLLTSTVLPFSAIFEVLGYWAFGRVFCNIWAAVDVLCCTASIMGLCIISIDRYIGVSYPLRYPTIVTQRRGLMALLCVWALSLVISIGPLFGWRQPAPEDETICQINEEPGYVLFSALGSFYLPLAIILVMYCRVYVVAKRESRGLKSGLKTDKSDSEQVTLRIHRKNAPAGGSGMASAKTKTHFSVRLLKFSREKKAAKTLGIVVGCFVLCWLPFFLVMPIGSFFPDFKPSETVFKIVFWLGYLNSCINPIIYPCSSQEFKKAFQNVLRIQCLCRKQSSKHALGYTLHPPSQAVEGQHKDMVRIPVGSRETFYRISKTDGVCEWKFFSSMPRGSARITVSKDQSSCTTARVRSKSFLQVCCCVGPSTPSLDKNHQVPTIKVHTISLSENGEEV
The experiment is classed as functional, cell-based.

For the next experiment, the target named is Vasopressin V1a receptor (Homo sapiens, UniProt P37288).
The target in the next experiment is Motilin receptor (Homo sapiens, UniProt O43193).
Experiment [8] deals with 3',5'-cyclic-AMP phosphodiesterase 4D (Homo sapiens, UniProt Q08499). It is filed as functional.
Note: assay procedure not described here.

Chain of Motilin receptor (O43193 whole entry): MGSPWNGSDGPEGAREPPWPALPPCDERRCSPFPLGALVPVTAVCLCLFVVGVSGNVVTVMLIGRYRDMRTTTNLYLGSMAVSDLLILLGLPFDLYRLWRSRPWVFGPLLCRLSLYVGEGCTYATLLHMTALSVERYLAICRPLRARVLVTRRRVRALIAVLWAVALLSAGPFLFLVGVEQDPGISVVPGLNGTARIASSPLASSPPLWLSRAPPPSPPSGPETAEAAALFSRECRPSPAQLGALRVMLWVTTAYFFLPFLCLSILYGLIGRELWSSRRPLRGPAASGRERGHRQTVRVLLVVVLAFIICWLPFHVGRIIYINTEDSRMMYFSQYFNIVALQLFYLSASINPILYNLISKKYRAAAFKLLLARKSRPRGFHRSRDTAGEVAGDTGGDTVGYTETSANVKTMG
Chain of Kappa-type opioid receptor (P41145 whole entry): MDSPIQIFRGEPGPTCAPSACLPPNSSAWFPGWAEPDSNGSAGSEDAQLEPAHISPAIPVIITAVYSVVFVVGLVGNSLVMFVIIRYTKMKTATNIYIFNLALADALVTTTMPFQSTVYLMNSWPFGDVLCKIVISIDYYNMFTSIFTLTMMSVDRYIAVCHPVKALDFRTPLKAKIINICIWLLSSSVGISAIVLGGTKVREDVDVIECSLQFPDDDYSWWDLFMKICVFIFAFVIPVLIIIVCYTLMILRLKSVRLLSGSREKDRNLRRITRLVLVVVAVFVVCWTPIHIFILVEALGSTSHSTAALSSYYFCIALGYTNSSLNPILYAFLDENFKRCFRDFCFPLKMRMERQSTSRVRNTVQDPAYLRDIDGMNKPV
Chain of 3',5'-cyclic-AMP phosphodiesterase 4D (Q08499 whole entry): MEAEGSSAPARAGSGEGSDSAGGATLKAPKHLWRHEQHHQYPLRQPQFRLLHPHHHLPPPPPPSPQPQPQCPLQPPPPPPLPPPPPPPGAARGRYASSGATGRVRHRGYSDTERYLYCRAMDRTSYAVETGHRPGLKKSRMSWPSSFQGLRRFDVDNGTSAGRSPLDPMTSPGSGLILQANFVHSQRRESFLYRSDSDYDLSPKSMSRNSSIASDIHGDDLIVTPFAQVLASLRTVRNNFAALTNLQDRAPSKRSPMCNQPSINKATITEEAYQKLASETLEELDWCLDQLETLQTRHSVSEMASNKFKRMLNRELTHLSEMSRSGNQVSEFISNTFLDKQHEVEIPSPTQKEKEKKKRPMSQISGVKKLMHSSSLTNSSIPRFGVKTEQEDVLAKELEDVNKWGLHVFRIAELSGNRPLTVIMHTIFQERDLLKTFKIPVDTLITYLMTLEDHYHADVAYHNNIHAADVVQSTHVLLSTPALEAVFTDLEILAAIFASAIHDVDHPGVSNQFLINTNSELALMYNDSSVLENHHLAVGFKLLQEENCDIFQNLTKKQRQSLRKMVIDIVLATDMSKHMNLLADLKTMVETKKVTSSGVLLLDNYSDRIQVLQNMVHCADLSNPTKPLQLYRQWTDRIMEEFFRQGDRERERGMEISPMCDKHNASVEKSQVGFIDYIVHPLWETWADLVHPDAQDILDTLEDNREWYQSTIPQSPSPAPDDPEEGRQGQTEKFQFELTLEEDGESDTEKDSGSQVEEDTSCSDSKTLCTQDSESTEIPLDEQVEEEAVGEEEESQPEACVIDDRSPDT
Chain of 5-hydroxytryptamine receptor 2A (P28223 whole entry): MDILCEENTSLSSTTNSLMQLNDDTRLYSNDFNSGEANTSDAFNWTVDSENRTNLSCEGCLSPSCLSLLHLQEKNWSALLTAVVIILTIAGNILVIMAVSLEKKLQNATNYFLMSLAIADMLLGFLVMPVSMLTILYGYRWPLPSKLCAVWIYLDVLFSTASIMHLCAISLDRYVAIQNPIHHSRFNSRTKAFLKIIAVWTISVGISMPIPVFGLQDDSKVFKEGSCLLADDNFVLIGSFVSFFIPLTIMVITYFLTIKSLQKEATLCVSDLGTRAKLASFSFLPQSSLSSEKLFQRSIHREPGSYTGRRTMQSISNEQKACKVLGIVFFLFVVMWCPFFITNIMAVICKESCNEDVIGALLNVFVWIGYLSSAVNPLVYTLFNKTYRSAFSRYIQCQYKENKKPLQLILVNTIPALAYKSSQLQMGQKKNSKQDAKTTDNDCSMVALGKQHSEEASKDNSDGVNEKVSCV
Chain of Vasopressin V1a receptor (P37288 whole entry): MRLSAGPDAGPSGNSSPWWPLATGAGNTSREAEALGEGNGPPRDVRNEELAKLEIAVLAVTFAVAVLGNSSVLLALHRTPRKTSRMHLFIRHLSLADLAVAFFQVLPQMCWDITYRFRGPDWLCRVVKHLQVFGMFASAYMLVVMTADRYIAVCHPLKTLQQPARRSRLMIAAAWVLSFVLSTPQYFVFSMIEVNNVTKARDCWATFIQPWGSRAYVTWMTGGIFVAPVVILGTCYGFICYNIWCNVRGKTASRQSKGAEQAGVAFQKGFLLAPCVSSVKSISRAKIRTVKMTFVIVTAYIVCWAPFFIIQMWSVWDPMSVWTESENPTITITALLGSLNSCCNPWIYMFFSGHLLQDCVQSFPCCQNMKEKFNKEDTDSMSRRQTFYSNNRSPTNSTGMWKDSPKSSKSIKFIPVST

As usually defined, the AC50 is the concentration giving half of the maximal activity seen. A higher AC50 goes with activity only at high concentration. With `C[C@]12CCC(=O)C=C1C=C[C@@H]1[C@@H]2CC[C@@]2(C)[C@H]1CC[C@@]21CCC(=O)O1` [CANRENONE], the AC50 was more than 30 µM in experiment [1]; 19 µM in experiment [2]; more than 30 µM in [3]; more than 30 µM in experiment [4]; more than 30 µM in [5]; more than 30 µM in experiment [6]. For the same molecule, the AC50 (in experiment [7]; at Vasopressin V1a receptor; on Motilin receptor; in experiment [8]) was more than 30 µM in each case.

Turning to `C[C@]12CCC(=O)C=C1[C@@H]1C[C@@H]1[C@H]1[C@@H]3[C@@H]4C[C@@H]4[C@@]4(CCC(=O)O4)[C@@]3(C)CC[C@@H]12` [DROSPIRENONE], the AC50 in experiment [1] is more than 30 µM; in experiment [2] it was more than 30 µM; in [3], 24 µM; in experiment [4], more than 30 µM; in experiment [5], more than 30 µM; in experiment [6] it was more than 30 µM. Also, the AC50 (in experiment [7]; at Vasopressin V1a receptor; on Motilin receptor; in [8]) was more than 30 µM in each case.

Turning to `CN(C)[C@@H]1C(O)=C(C(=O)NCN2CCCC2)C(=O)[C@@]2(O)C(O)=C3C(=O)c4c(O)cccc4[C@@](C)(O)[C@H]3C[C@@H]12` [ROLITETRACYCLINE], the AC50 was 0.653 µM in [1]; more than 10 µM in experiment [2]; more than 30 µM in [3]; more than 10 µM in experiment [4]; more than 30 µM in experiment [5]; more than 30 µM in experiment [6]. For the same molecule, the AC50 was more than 30 µM in experiment [7], more than 10 µM at Vasopressin V1a receptor, more than 10 µM on Motilin receptor and more than 30 µM in [8].

These data come from ChEMBL document CHEMBL5291721, “A preclinical secondary pharmacology resource illuminates target-adverse drug reaction associations of marketed drugs” (Nat Commun, 2023).
